Key:
Format in all cases: in vivo
[1] = tested on: barnyardgrass (Echinochloa crus-galli); experiment: Test B flooded paddy test; settings: for Plant response rating, Flood, Barnyardgrass: 250 g ai/ha, flooded paddy test, visual rating on 0 to 100 scale (0 no effect, 100 complete control) after 13 to 15 days; for Plant response rating, Barnyardgrass: Flood (flooded paddy test), 13 to 15 days; for Barnyardgrass plant response rating: Flood, 31 g ai/ha, scale 0 to 100 (0 no effect, 100 complete control)
Method in brief: (§1)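 Flooded-pot test: water raised to 3 cm above soil when treating, compound put in the water, level unchanged thereafter. Plants were at 2 leaves. Readout after 13 to 15 days, visual, relative to controls; 0 signifies no effect and 100 complete control.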

rice (Oryza sativa) = experiment: Test B flooded paddy test; settings: for Plant response rating, Flood, Rice: 250 g ai/ha, flooded paddy test, visual rating on 0 to 100 scale (0 no effect, 100 complete control) after 13 to 15 days; for Plant response rating, Rice: Flood (flooded paddy test), 13 to 15 days; for Rice plant response rating: Flood, 31 g ai/ha, scale 0 to 100 (0 no effect, 100 complete control)
Method in brief: as §1

[2] = tested on: umbrella sedge (Cyperus difformis); experiment: Test B flooded paddy test; settings: for Plant response rating, Flood, Sedge, Umbrella: 250 g ai/ha, flooded paddy test, visual rating on 0 to 100 scale (0 no effect, 100 complete control) after 13 to 15 days; for Plant response rating, Sedge, Umbrella: Flood (flooded paddy test), 13 to 15 days; for Sedge, Umbrella plant response rating: Flood, 31 g ai/ha, scale 0 to 100 (0 no effect, 100 complete control)
Method in brief: as §1

[3] = tested on: ducksalad (Heteranthera limosa); experiment: Test B flooded paddy test; settings: for Plant response rating, Flood, Ducksalad: 250 g ai/ha, flooded paddy test, visual rating on 0 to 100 scale (0 no effect, 100 complete control) after 13 to 15 days; for Plant response rating, Ducksalad: Flood (flooded paddy test), 13 to 15 days; for Ducksalad plant response rating: Flood, 31 g ai/ha, scale 0 to 100 (0 no effect, 100 complete control)
Method in brief: as §1

[4] = tested on: morningglory (Ipomoea spp.); experiment: Test A pre-/postemergence plant response
Method in brief: (§2)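 Plants grown from seed in a loam soil and sand mix received test compounds both as a preemergence soil spray and, at the same time, as a postemergence spray at the one- to two-leaf stage. Injury was judged visually against untreated controls roughly ten days later, 0 meaning no effect and 100 complete control.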

[5] = tested on: large crabgrass (Digitaria sanguinalis); experiment: Test A pre-/postemergence plant response
Method in brief: as §2

corn (Zea mays) = experiment: Test A pre-/postemergence plant response
Method in brief: as §2

[6] = tested on: velvetleaf (Abutilon theophrasti); experiment: Test A pre-/postemergence plant response
Method in brief: as §2

[7] = tested on: wheat (Triticum aestivum); experiment: Test A pre-/postemergence plant response
Method in brief: as §2

[8] = tested on: giant foxtail (Setaria faberii); experiment: Test A pre-/postemergence plant response
Method in brief: as §2

[9] = tested on: barnyardgrass (Echinochloa crus-galli); experiment: Test A pre-/postemergence plant response
Method in brief: as §2

[10] = tested on: pigweed (Amaranthus retroflexus); experiment: Test A pre-/postemergence plant response
Method in brief: as §2

[11] = 62 g ai/ha, scale of 0 to 100 where 0 is no effect and 100 is complete control
[12] = 125 g ai/ha, scale 0 to 100, 0 is no effect, 100 is complete control
[13] = Postemergence, 125 g ai/ha, 0 to 100 scale where 0 is no effect and 100 is complete control
[14] = Postemergence, 500 g ai/ha, 0 to 100 scale, 0 = no effect, 100 = complete control, approx. ten days
[15] = Preemergence, 125 g ai/ha, 0 to 100 scale, 0 = no effect, 100 = complete control
[16] = Preemergence, 500 g ai/ha, visual injury, 0 to 100 scale (0 no effect, 100 complete control), approx. ten days
[17] = Postemergence, 500 g ai/ha, visual injury, 0 to 100 scale (0 no effect, 100 complete control), approx. ten days
[18] = Preemergence, 500 g ai/ha, 0 to 100 scale, 0 = no effect, 100 = complete control

## Cc1cc(-n2c(-c3cccc(Cl)c3)ncc(C(=O)C3=C(O)CCCC3=O)c2=O)ccc1F [Compound 133]
[1]
  Plant response rating, Flood, Barnyardgrass: 0
  Barnyardgrass plant response rating: 0
[1]; [11]
  Plant response rating, Barnyardgrass: 0
[1]; [12]
  Plant response rating, Barnyardgrass: 0
Rice (Oryza sativa)
  Plant response rating, Flood, Rice: 0
  Rice plant response rating: 0
Rice (Oryza sativa); [11]
  Plant response rating, Rice: 0
Rice (Oryza sativa); [12]
  Plant response rating, Rice: 0
[2]
  Plant response rating, Flood, Sedge, Umbrella: 100
  Sedge, Umbrella plant response rating: 0
[2]; [11]
  Plant response rating, Sedge, Umbrella: 60
[2]; [12]
  Plant response rating, Sedge, Umbrella: 95
[3]
  Plant response rating, Flood, Ducksalad: 100
  Ducksalad plant response rating: 60
[3]; [11]
  Plant response rating, Ducksalad: 60
[3]; [12]
  Plant response rating, Ducksalad: 100
[4]; [13]
  Plant response rating, Morningglory: 40
[4]; [14]
  Plant response rating, Morningglory: 70
[4]; [15]
  Plant response rating, Morningglory: 0
[4]; [16]
  Plant response rating, Morningglory: 0
[5]; [13]
  Plant response rating, Crabgrass, Large: 40
[5]; [14]
  Plant response rating, Crabgrass, Large: 100
[5]; [15]
  Plant response rating, Crabgrass, Large: 50
[5]; [16]
  Plant response rating, Crabgrass, Large: 100
Corn (Zea mays); [13]
  Plant response rating, Corn: 10
Corn (Zea mays); [14]
  Plant response rating, Corn: 40
Corn (Zea mays); [15]
  Plant response rating, Corn: 0
Corn (Zea mays); [16]
  Plant response rating, Corn: 20
[6]; [13]
  Plant response rating, Velvetleaf: 100
[6]; [14]
  Plant response rating, Velvetleaf: 100
[6]; [15]
  Plant response rating, Velvetleaf: 50
[6]; [16]
  Plant response rating, Velvetleaf: 100
[7]; [13]
  Plant response rating, Wheat: 20
[7]; [14]
  Plant response rating, Wheat: 40
[7]; [15]
  Plant response rating, Wheat: 0
[7]; [16]
  Plant response rating, Wheat: 20
[8]; [13]
  Plant response rating, Foxtail, Giant: 20
[8]; [14]
  Plant response rating, Foxtail, Giant: 90
[8]; [15]
  Plant response rating, Foxtail, Giant: 40
[8]; [16]
  Plant response rating, Foxtail, Giant: 80
[9]; [13]
  Plant response rating, Barnyardgrass: 20
[9]; [14]
  Plant response rating, Barnyardgrass: 90
[9]; [15]
  Plant response rating, Barnyardgrass: 10
[9]; [16]
  Plant response rating, Barnyardgrass: 100
[10]; [13]
  Plant response rating, Pigweed: 80
[10]; [14]
  Plant response rating, Pigweed: 100
[10]; [15]
  Plant response rating, Pigweed: 40
[10]; [16]
  Plant response rating, Pigweed: 100

## C#Cc1ccc(-c2ncc(C(=O)C3=C(O)CCCC3=O)c(=O)n2C2CCCCC2)cc1 [Compound 216]
[1]
  Plant response rating, Flood, Barnyardgrass: 0
  Barnyardgrass plant response rating: 0
[1]; [11]
  Plant response rating, Barnyardgrass: 0
[1]; [12]
  Plant response rating, Barnyardgrass: 0
Rice (Oryza sativa)
  Plant response rating, Flood, Rice: 0
  Rice plant response rating: 0
Rice (Oryza sativa); [11]
  Plant response rating, Rice: 0
Rice (Oryza sativa); [12]
  Plant response rating, Rice: 0
[2]
  Plant response rating, Flood, Sedge, Umbrella: 100
  Sedge, Umbrella plant response rating: 0
[2]; [11]
  Plant response rating, Sedge, Umbrella: 65
[2]; [12]
  Plant response rating, Sedge, Umbrella: 80
[3]
  Plant response rating, Flood, Ducksalad: 95
  Ducksalad plant response rating: 50
[3]; [11]
  Plant response rating, Ducksalad: 90
[3]; [12]
  Plant response rating, Ducksalad: 90
[4]; [13]
  Plant response rating, Morningglory: 70
[4]; [17]
  Morningglory plant response rating: 90
[4]; [15]
  Plant response rating, Morningglory: 0
[4]; [18]
  Plant response rating, Morningglory: 30
[5]; [13]
  Plant response rating, Crabgrass, Large: 40
[5]; [17]
  Crabgrass, Large plant response rating: 80
[5]; [15]
  Plant response rating, Crabgrass, Large: 0
[5]; [18]
  Plant response rating, Crabgrass, Large: 80
Corn (Zea mays); [13]
  Plant response rating, Corn: 0
Corn (Zea mays); [17]
  Corn plant response rating: 0
Corn (Zea mays); [15]
  Plant response rating, Corn: 0
Corn (Zea mays); [18]
  Plant response rating, Corn: 20
[6]; [13]
  Plant response rating, Velvetleaf: 90
[6]; [17]
  Velvetleaf plant response rating: 100
[6]; [15]
  Plant response rating, Velvetleaf: 0
[6]; [18]
  Plant response rating, Velvetleaf: 30
[7]; [13]
  Plant response rating, Wheat: 20
[7]; [17]
  Wheat plant response rating: 30
[7]; [15]
  Plant response rating, Wheat: 0
[7]; [18]
  Plant response rating, Wheat: 0
[8]; [13]
  Plant response rating, Foxtail, Giant: 30
[8]; [17]
  Foxtail, Giant plant response rating: 70
[8]; [15]
  Plant response rating, Foxtail, Giant: 0
[8]; [18]
  Plant response rating, Foxtail, Giant: 60
[9]; [13]
  Plant response rating, Barnyardgrass: 10
[9]; [17]
  Barnyardgrass plant response rating: 90
[9]; [15]
  Plant response rating, Barnyardgrass: 0
[9]; [18]
  Plant response rating, Barnyardgrass: 20
[10]; [13]
  Plant response rating, Pigweed: 90
[10]; [17]
  Pigweed plant response rating: 90
[10]; [15]
  Plant response rating, Pigweed: 0
[10]; [18]
  Plant response rating, Pigweed: 50

## O=C1CCCC(O)=C1C(=O)c1cnc(-c2cc(F)cc(F)c2)n(-c2ccccc2)c1=O [Compound 161]
[1]
  Plant response rating, Flood, Barnyardgrass: 30
  Barnyardgrass plant response rating: 0
[1]; [11]
  Plant response rating, Barnyardgrass: 0
[1]; [12]
  Plant response rating, Barnyardgrass: 0
Rice (Oryza sativa)
  Plant response rating, Flood, Rice: 50
  Rice plant response rating: 25
Rice (Oryza sativa); [11]
  Plant response rating, Rice: 50
Rice (Oryza sativa); [12]
  Plant response rating, Rice: 45
[2]
  Plant response rating, Flood, Sedge, Umbrella: 60
  Sedge, Umbrella plant response rating: 0
[2]; [11]
  Plant response rating, Sedge, Umbrella: 0
[2]; [12]
  Plant response rating, Sedge, Umbrella: 0
[3]
  Plant response rating, Flood, Ducksalad: 80
  Ducksalad plant response rating: 0
[3]; [11]
  Plant response rating, Ducksalad: 0
[3]; [12]
  Plant response rating, Ducksalad: 0
[4]; [13]
  Plant response rating, Morningglory: 60
[4]; [17]
  Morningglory plant response rating: 100
[4]; [15]
  Plant response rating, Morningglory: 0
[4]; [18]
  Plant response rating, Morningglory: 40
[5]; [13]
  Plant response rating, Crabgrass, Large: 60
[5]; [17]
  Crabgrass, Large plant response rating: 90
[5]; [15]
  Plant response rating, Crabgrass, Large: 50
[5]; [18]
  Plant response rating, Crabgrass, Large: 90
Corn (Zea mays); [13]
  Plant response rating, Corn: 0
Corn (Zea mays); [17]
  Corn plant response rating: 10
Corn (Zea mays); [15]
  Plant response rating, Corn: 0
Corn (Zea mays); [18]
  Plant response rating, Corn: 0
[6]; [13]
  Plant response rating, Velvetleaf: 100
[6]; [17]
  Velvetleaf plant response rating: 100
[6]; [15]
  Plant response rating, Velvetleaf: 70
[6]; [18]
  Plant response rating, Velvetleaf: 90
[7]; [13]
  Plant response rating, Wheat: 0
[7]; [17]
  Wheat plant response rating: 0
[7]; [15]
  Plant response rating, Wheat: 0
[7]; [18]
  Plant response rating, Wheat: 0
[8]; [13]
  Plant response rating, Foxtail, Giant: 40
[8]; [17]
  Foxtail, Giant plant response rating: 90
[8]; [15]
  Plant response rating, Foxtail, Giant: 50
[8]; [18]
  Plant response rating, Foxtail, Giant: 80
[9]; [13]
  Plant response rating, Barnyardgrass: 30
[9]; [17]
  Barnyardgrass plant response rating: 90
[9]; [15]
  Plant response rating, Barnyardgrass: 10
[9]; [18]
  Plant response rating, Barnyardgrass: 90
[10]; [13]
  Plant response rating, Pigweed: 80
[10]; [17]
  Pigweed plant response rating: 100
[10]; [15]
  Plant response rating, Pigweed: 90
[10]; [18]
  Plant response rating, Pigweed: 100

From patent publication US8952024B2, “Herbicidal pyrimidone derivatives” (E I du Pont de Nemours and Company, priority 2009, dated 2015)
